PMC9696605 (Viruses, 2022)

Key:
[1] = tested on: KIR2DL2 positive NK cells vs 721.221-ICP47-C1 cells; test: CAM cytotoxicity assay, 721.221-ICP47-C1 targets; format: cell-based, human; settings: NK cells from MS patients, 4 h, 26 °C, Figure 5c, MBP, pU24-6B, U24-7 p < 0.001, pU24-6A p: NS (Fisher exact test)
Fyn-SH3 = Fyn-SH3 (Homo sapiens, UniProt P06241); settings: phosphorylated MBP; cited from earlier work
actin = settings: cited from earlier work
[2] = cited from earlier work
[3] = tested on: NK cells from MS patients co-cultured with 721.221-ICP47-C1 cells; test: CD107a degranulation assay; format: cell-based, human; settings: 721.221-ICP47-C1 cells incubated with pU24-6A, Figure 5e; p < 0.01 (Fisher exact test)
hNedd4L-WW3* [4] = molecular target: T1, hNedd4L-WW3* (Homo sapiens, UniProt Q96PU5); settings: binding to hNedd4L-WW3* domain, quoted from earlier work; ref 30 (Sang et al.); cited from earlier work
T1 construct: GST (N, cleaved yes); made in house; host or cells: E. coli BL21(DE3), pGEX-4T2

hNedd4L-WW3* [5] = molecular target: T1, hNedd4L-WW3*; settings: NMR titrations; cited from earlier work

T1 sequence (Q96PU5 with tags, fused parts or gaps): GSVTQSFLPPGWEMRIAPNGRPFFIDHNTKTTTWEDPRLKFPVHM
Sequence of Fyn-SH3 (P06241 with tags, fused parts or gaps): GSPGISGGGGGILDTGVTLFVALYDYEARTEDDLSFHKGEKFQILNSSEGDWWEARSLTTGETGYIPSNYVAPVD

Molecule	Killing of 721.221-ICP47-C1 cells by KIR2DL2 positive NK cells [1]	Effect of MBP phosphorylation on interaction with Fyn-SH3 (Fyn-SH3)	Effect of MBP phosphorylation on actin polymerization and bundling (actin)	Effect of MBP phosphorylation on lipid interaction [2]	CD107a expression, KIR2DL2 positive vs negative NK cells [3]	ΔG° (hNedd4L-WW3* [4])	ΔH° (hNedd4L-WW3* [4]) [kcal/mol]	ΔS° (hNedd4L-WW3* [4]) [J. mol^−1.K^−1]	hNedd4L-WW3* residue perturbed (hNedd4L-WW3* [5])
MBP: myelin basic protein, a key component of the myelin sheath (IVTPRTPPPSQGKGR)	induced 721.221-ICP47-C1 cell killing	reduced interaction with Fyn-SH3	decrease the ability of MBP to polymerize actin and to bundle actin filaments	decreases the interaction between MBP and lipids	–	–	–	–	–
CSCC[C@H](N)C(=O)N[C@@H](CC(=O)O)C(=O)N1CCC[C@H]1C(=O)N1CCC[C@H]1C(=O)N[C@@H](CCCNC(=N)N)C(=O)N[C@H](C(=O)N1CCC[C@H]1C(=O)N1CCC[C@H]1C(=O)N1CCC[C@H]1C(=O)N[C@@H](CO)C(=O)N[C@@H](Cc1ccc(O)cc1)C(=O)N[C@@H](CO)C(=O)N[C@@H](CCC(=O)O)C(=O)N[C@H](C(=O)N[C@@H](CC(C)C)C(=O)O)C(C)C)[C@@H](C)OP(=O)(O)O [pU24-6A]	maintained KIR2DL2 positive NK cells unresponsive towards 721.221-ICP47-C1 cells	–	–	–	lower in KIR2DL2 positive NK cells in comparison with KIR2DL2 negative NK cells	(−3.49 ± 0.05)×10^1 kJ.mol^−1	-14 ± 0.096	-79.8 ± 0.9	R492 was found to be perturbed
